PubChem BioAssay (NCI)
Where “and” joins values, the source holds several entries; their conditions need not be identical. Identical values can stand only once.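 96-well plates; 48 h exposure; 5 concentrations. Endpoints by linear interpolation between flanking doses. Not reached: highest tested concentration assigned. The concentration for 50% growth inhibition is given as GI50. TGI marks complete inhibition of growth.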

What was measured:
Test in all cases: NCI-60 cell line screen, 48 h
786-0 renal = system: 786-0 renal
A498 renal = system: A498 renal
A549 NSCLC = system: A549 NSCLC
ACHN renal = system: ACHN renal
BT-549 breast = system: BT-549 breast
CAKI-1 renal = system: CAKI-1 renal
CCRF-CEM leukemia = system: CCRF-CEM leukemia
COLO 205 colon = system: COLO 205 colon
DU-145 prostate = system: DU-145 prostate
EKVX NSCLC = system: EKVX NSCLC
HCC-2998 colon = system: HCC-2998 colon
HCT-116 colon = system: HCT-116 colon
HCT-15 colon = system: HCT-15 colon
HL-60(TB) leukemia = system: HL-60(TB) leukemia
HOP-62 NSCLC = system: HOP-62 NSCLC
HOP-92 NSCLC = system: HOP-92 NSCLC
HS 578T breast = system: HS 578T breast
HT29 colon = system: HT29 colon
IGROV1 ovarian = system: IGROV1 ovarian
K-562 leukemia = system: K-562 leukemia
KM12 colon = system: KM12 colon
LOX IMVI melanoma = system: LOX IMVI melanoma
M14 melanoma = system: M14 melanoma
MALME-3M melanoma = system: MALME-3M melanoma
MDA-MB-231 breast = system: MDA-MB-231 breast
MDA-MB-435 = system: MDA-MB-435
MDA-N = system: MDA-N
MOLT-4 leukemia = system: MOLT-4 leukemia
NCI-H226 lung = system: NCI-H226 lung
NCI-H23 lung = system: NCI-H23 lung
NCI-H460 lung = system: NCI-H460 lung
NCI-H522 lung = system: NCI-H522 lung
NCI/ADR-RES ovarian = system: NCI/ADR-RES ovarian
OVCAR-3 ovarian = system: OVCAR-3 ovarian
OVCAR-4 ovarian = system: OVCAR-4 ovarian
OVCAR-5 ovarian = system: OVCAR-5 ovarian
OVCAR-8 ovarian = system: OVCAR-8 ovarian
PC-3 prostate = system: PC-3 prostate
RPMI-8226 leukemia = system: RPMI-8226 leukemia
RXF 393 renal = system: RXF 393 renal
SF-268 CNS = system: SF-268 CNS
SF-295 CNS = system: SF-295 CNS
SF-539 CNS = system: SF-539 CNS
SK-MEL-2 melanoma = system: SK-MEL-2 melanoma
SK-MEL-28 melanoma = system: SK-MEL-28 melanoma
SK-MEL-5 melanoma = system: SK-MEL-5 melanoma
SK-OV-3 ovarian = system: SK-OV-3 ovarian
SN12C renal = system: SN12C renal
SNB-19 CNS = system: SNB-19 CNS
SNB-75 CNS = system: SNB-75 CNS
SR leukemia = system: SR leukemia
SW-620 colon = system: SW-620 colon
T-47D breast = system: T-47D breast
TK-10 renal = system: TK-10 renal
U251 CNS = system: U251 CNS
UACC-257 melanoma = system: UACC-257 melanoma
UACC-62 melanoma = system: UACC-62 melanoma
UO-31 renal = system: UO-31 renal

With `COc1ccc(Cn2c3c(cc(OS(=O)(=O)C(F)(F)F)c2=O)Cc2ccccc2-3)cc1` the GI50 (786-0 renal) was 3.87 µM, the TGI (786-0 renal) was 50 µM and > 100 µM and the GI50 (A498 renal) was over 100 µM. For the same compound, the TGI (A498 renal) was over 100 µM, the GI50 (A549 NSCLC) was 9.95 µM and the TGI (A549 NSCLC) was 50 µM and > 100 µM. The GI50 (ACHN renal) was 5.25 µM, the TGI (ACHN renal) was 50 µM and > 100 µM and the GI50 (BT-549 breast) was 19.9 µM. For the same compound, the TGI (BT-549 breast) was 50 µM and > 100 µM, the GI50 (CAKI-1 renal) was 53 µM and the TGI (CAKI-1 renal) was 50 µM and > 100 µM. The GI50 (CCRF-CEM leukemia) was 3.95 µM, the TGI (CCRF-CEM leukemia) was 50 µM and > 100 µM and the GI50 (COLO 205 colon) was 61.1 µM. For the same compound, the TGI (COLO 205 colon) was 50 µM and > 100 µM, the GI50 (DU-145 prostate) was 17.1 µM and the TGI (DU-145 prostate) was 50 µM and > 100 µM. The GI50 (EKVX NSCLC) was 3.36 µM, the TGI (EKVX NSCLC) was 50 µM and > 100 µM and the TGI (HCC-2998 colon) was 50 µM. The GI50 (HCT-116 colon) was 3.53 µM, the TGI (HCT-116 colon) was 50 µM and > 100 µM and the TGI (HCT-15 colon) was 50 µM and > 100 µM. The GI50 (HL-60(TB) leukemia) was 3.6 µM, the TGI (HL-60(TB) leukemia) was 46.2 µM and 17 µM and the TGI (HOP-62 NSCLC) was 50 µM. For the same compound, the GI50 (HOP-92 NSCLC) was 17.6 µM, the TGI (HOP-92 NSCLC) was 50 µM and > 100 µM and the GI50 (HS 578T breast) was over 100 µM. The TGI (HS 578T breast) was over 100 µM, the GI50 (HT29 colon) was 79 µM and the TGI (HT29 colon) was over 100 µM. For the same compound, the GI50 (IGROV1 ovarian) was 7.26 µM, the TGI (IGROV1 ovarian) was 50 µM and > 100 µM and the GI50 (K-562 leukemia) was 5.1 µM. For the same compound, the TGI (K-562 leukemia) was 50 µM and > 100 µM, the GI50 (KM12 colon) was 41.1 µM and the TGI (KM12 colon) was 50 µM and > 100 µM. The GI50 (LOX IMVI melanoma) was 6.82 µM, the TGI (LOX IMVI melanoma) was 50 µM and > 100 µM and the GI50 (M14 melanoma) was 11.4 µM. For the same compound, the TGI (M14 melanoma) was 15.4 µM and 30.8 µM, the GI50 (MALME-3M melanoma) was 20.7 µM and the TGI (MALME-3M melanoma) was 50 µM and > 100 µM. It also gave a GI50 (MDA-MB-231 breast) of 5.26 µM, a TGI (MDA-MB-231 breast) of over 100 µM and a GI50 (MDA-MB-435) of 29.4 µM. The TGI (MDA-MB-435) was 50 µM and > 100 µM, the GI50 (MDA-N) was 7.55 µM and the TGI (MDA-N) was 50 µM and > 100 µM. The GI50 (MOLT-4 leukemia) was 4.18 µM, the TGI (MOLT-4 leukemia) was 50 µM and > 100 µM and the GI50 (NCI-H226 lung) was 37.7 µM. The TGI (NCI-H226 lung) was 50 µM and > 100 µM, the GI50 (NCI-H23 lung) was 8.26 µM and the TGI (NCI-H23 lung) was 50 µM and > 100 µM. For the same compound, the TGI (NCI-H460 lung) was 50 µM and 36.4 µM, the GI50 (NCI-H522 lung) was 7.24 µM and the TGI (NCI-H522 lung) was 50 µM and > 100 µM. The GI50 (NCI/ADR-RES ovarian) was 3.03 µM, the TGI (NCI/ADR-RES ovarian) was 50 µM and > 100 µM and the GI50 (OVCAR-3 ovarian) was 5.12 µM. For the same compound, the TGI (OVCAR-3 ovarian) was 50 µM and > 100 µM, the GI50 (OVCAR-4 ovarian) was 9.56 µM and the TGI (OVCAR-4 ovarian) was 50 µM and > 100 µM. For the same compound, the GI50 (OVCAR-5 ovarian) was over 100 µM, the TGI (OVCAR-5 ovarian) was 50 µM and > 100 µM and the GI50 (OVCAR-8 ovarian) was 9.07 µM. The TGI (OVCAR-8 ovarian) was 50 µM and > 100 µM, the GI50 (PC-3 prostate) was 26.7 µM and the TGI (PC-3 prostate) was over 100 µM. For the same compound, the TGI (RPMI-8226 leukemia) was 50 µM, the TGI (RXF 393 renal) was 50 µM and > 100 µM and the GI50 (SF-268 CNS) was 8.54 µM. The TGI (SF-268 CNS) was 50 µM and > 100 µM, the GI50 (SF-295 CNS) was 31.7 µM and the TGI (SF-295 CNS) was 50 µM and > 100 µM. For the same compound, the GI50 (SF-539 CNS) was 5.29 µM, the TGI (SF-539 CNS) was 50 µM and > 100 µM and the GI50 (SK-MEL-2 melanoma) was 14.5 µM. The TGI (SK-MEL-2 melanoma) was 50 µM and > 100 µM, the GI50 (SK-MEL-28 melanoma) was 22.8 µM and the TGI (SK-MEL-28 melanoma) was 50 µM and > 100 µM. For the same compound, the GI50 (SK-MEL-5 melanoma) was 7.3 µM, the TGI (SK-MEL-5 melanoma) was 26 µM and 43.9 µM and the GI50 (SK-OV-3 ovarian) was over 100 µM. The TGI (SK-OV-3 ovarian) was 50 µM and > 100 µM, the GI50 (SN12C renal) was 5.91 µM and the TGI (SN12C renal) was 50 µM and 47 µM. For the same compound, the GI50 (SNB-19 CNS) was 23.7 µM, the TGI (SNB-19 CNS) was 50 µM and > 100 µM and the GI50 (SNB-75 CNS) was over 100 µM. The TGI (SNB-75 CNS) was over 100 µM, the TGI (SR leukemia) was 50 µM and 20.1 µM and the GI50 (SW-620 colon) was 5.29 µM. For the same compound, the TGI (SW-620 colon) was 50 µM and > 100 µM, the GI50 (T-47D breast) was 16.6 µM and the TGI (T-47D breast) was 50 µM and > 100 µM. For the same compound, the GI50 (TK-10 renal) was 19.5 µM, the TGI (TK-10 renal) was 50 µM and > 100 µM and the GI50 (U251 CNS) was 6.55 µM. For the same compound, the TGI (U251 CNS) was 50 µM and > 100 µM, the GI50 (UACC-257 melanoma) was 5.14 µM and the TGI (UACC-257 melanoma) was 50 µM and > 100 µM. The GI50 (UACC-62 melanoma) was 5.39 µM, the TGI (UACC-62 melanoma) was 50 µM and 32.1 µM and the GI50 (UO-31 renal) was 9.37 µM. The TGI (UO-31 renal) was 50 µM and > 100 µM.
